According to patent US20160038518A1, “METHODS FOR TREATING PSORIASIS AND VASCULAR INFLAMMATION” (VASCULAR BIOGENICS LTD., priority 2012, published 2016):
Several values for one entry are separate records, joined by “and”; a condition that tells them apart may be missing. Equal entries are not always repeated.

Assays:
[1] = system: LPS and Pam3CSK4 signaling; test: LPS and Pam3CSK4 signaling in human monocytes; type: cell-based; details: FIG. 1B
[2] = system: moderate to severe plaque psoriasis; test: randomized, double-blind Phase II clinical study in plaque psoriasis (PGA, PtGA, PASI); type: in vivo, human; details: for average reduction of PASI score: 12 weeks
Method: Patients were screened for eligibility and, up to 28 days later, at the baseline visit, randomized to one of three treatment groups (1:1:1): VB-201 20 mg/day: VB-201 80 mg/day: placebo/day. Patients consumed 2 capsules per day (VB-201 20 mg+placebo, VB-201 40 mg+40 mg, or 2× placebo). To ensure that the treatment assignments were concealed, all patients received 2 matching capsules of VB-201 or placebo.
(§1) The efficacy analyses were performed on the data from a modified intention-to-treat (MITT) population (defined as all patients randomized who received at least one dose of medication and had at least one efficacy evaluation). The safety analyses were performed on all randomized patients who received at least one dose of the drug.
A randomized, double-blind Phase II clinical study was performed in subjects with moderate to severe plaque psoriasis, in order to determine the efficacy of VB-201 in treating this condition. […] Patients underwent a wash-out period following any previous treatments. After screening and establishment of a baseline, eligible subjects were randomly assigned to receive 20 mg per day VB-201, 80 mg per day VB-201 or a daily placebo, for a period of 12 weeks.
Doses were administered orally at breakfast time with food. The maximal dose of VB-201 (80 mg/day) was determined according to earlier tolerability results (see, e.g., Example 4 of WO2011/083465).
Efficacy of each dosage level of VB-201 relative to placebo was determined according to the percentage of patients which achieved at least a 50% or 75% improvement over baseline PASI score at week 12.
Statistical comparisons were performed using a two-sided comparison with a 5% level of significance. All analyses were performed using Statistical Analysis Software (SAS®) Version 9.2.
Categorical analyses of Physician's Global Assessment and Patient's Psoriasis Global Assessment scores at Baseline, Week 8 and Week 12 were analyzed.
The Physician's Global Assessment (PGA) score was based on a 5-point scale with possible outcomes 0=clear, 1=almost clear, 2=mild, 3=moderate and 4=severe.
The Patient's Psoriasis Global Assessment (PtGA) score was based on a 6-point scale with possible outcomes 0=clear, 1=almost clear, 2=mild, 3=moderate, and 4 severe and 5=worst psoriasis has ever been.
The analyses that follow use the categorical nature of the PGA and PtGA, i.e. the 5-point or 6-point ordered scale which was considered more relevant than a continuous approach.
The proportion of patients with baseline, week 8 and week 12 PGA scores 0-3 vs. 4 (Clear or Almost Clear or Mild or Moderate vs. Severe) and PtGA scores of 0-2 vs. 3-5 (Clear or Almost Clear or Mild vs. Moderate or Severe or Worse).
Pairwise comparisons between placebo and each active dose group was made using Fisher's exact tests at the 5% level of significance.

[3] = system: patients with moderate to severe plaque psoriasis; test: safety evaluation in the Phase II clinical study; type: in vivo, human
Method: as §1

humans = test: tolerability of daily dose in human clinical studies; type: in vivo
human CD 14+ monocytes = details: VB-201 5 μg/ml prior to chemotaxis assay; MCP-1 (50 ng/ml), MIP-1a (50 ng/ml) or RANTES (100 ng/ml); FIG. 1A

CCCCCCCCCCCCCCCCOC[C@H](COP(=O)([O-])OCC[N+](C)(C)C)OCCCCC(=O)O [VB-201, 1-hexadecyl-2-(4′-carboxy)butyl-sn-glycero-3-phosphocholine]
inhibition of LPS and Pam3CSK4 signaling [1]: inhibition of LPS and Pam3CSK4 signaling
PGA decrease from baseline to week 12 versus placebo ([2]; 20 mg): statistically superior to that with placebo
PGA odds ratio, ordered logistic regression under the proportional odds model ([2]; 20 mg and 80 mg groups combined vs placebo, p=0.049, CI=1.00-3.65): 1.91
Patient Global Assessment decrease from baseline to week 12 versus placebo ([2]; 20 mg, p=0.12): trend for efficacy
PGA 0-3 (No/Almost Clear/Mild/Mod), % of patients ([2]; 20 mg/day, Baseline): 83.87%
PGA 0-3 (No/Almost Clear/Mild/Mod), Freq. ([2]; 20 mg/day, Baseline): 52
PGA 4 (Severe), % of patients ([2]; 20 mg/day, Baseline): 16.13%
PGA 4 (Severe), Freq. ([2]; 20 mg/day, Baseline): 10
PtGA 0-2 (No/Almost Clear/Mild), % of patients ([2]; 20 mg/day, Baseline): 11.29%
PtGA 0-2 (No/Almost Clear/Mild), Freq. ([2]; 20 mg/day, Baseline): 7
PtGA 3-5 (Mod/Severs/Worse), % of patients ([2]; 20 mg/day, Baseline): 88.71%
PtGA 3-5 (Mod/Severs/Worse), Freq. ([2]; 20 mg/day, Baseline): 55
PGA 0-3 (No/Almost Clear/Mild/Mod), % of patients ([2]; 20 mg/day, Week 8): 96.8%
PGA 0-3 (No/Almost Clear/Mild/Mod), Freq. ([2]; 20 mg/day, Week 8): 60
PGA 4 (Severe), % of patients ([2]; 20 mg/day, Week 8): 3.2% and 3.23%
PGA 4 (Severe), Freq. ([2]; 20 mg/day, Week 8): 2
PtGA 0-2 (No/Almost Clear/Mild), % of patients ([2]; 20 mg/day, Week 8): 32.26%
PtGA 0-2 (No/Almost Clear/Mild), Freq. ([2]; 20 mg/day, Week 8): 20
PtGA 3-5 (Mod/Severs/Worse), % of patients ([2]; 20 mg/day, Week 8): 67.74%
PtGA 3-5 (Mod/Severs/Worse), Freq. ([2]; 20 mg/day, Week 8): 42
PGA 0-3 (No/Almost Clear/Mild/Mod), % of patients ([2]; 20 mg/day, Week 12/EOT): 95.16%
PGA 0-3 (No/Almost Clear/Mild/Mod), Freq. ([2]; 20 mg/day, Week 12/EOT): 59
PGA 4 (Severe), % of patients ([2]; 20 mg/day, Week 12/EOT): 4.8% and 4.84%
PGA 4 (Severe), Freq. ([2]; 20 mg/day, Week 12/EOT): 3
PtGA 0-2 (No/Almost Clear/Mild), % of patients ([2]; 20 mg/day, Week 12/EOT): 30.65%
PtGA 0-2 (No/Almost Clear/Mild), Freq. ([2]; 20 mg/day, Week 12/EOT): 19
PtGA 3-5 (Mod/Severs/Worse), % of patients ([2]; 20 mg/day, Week 12/EOT): 69.35%
PtGA 3-5 (Mod/Severs/Worse), Freq. ([2]; 20 mg/day, Week 12/EOT): 43
PGA decrease from baseline to week 12 versus placebo ([2]; 80 mg): trend for efficacy
Patient Global Assessment odds ratio, ordered logistic regression under the proportional odds model ([2]; 80 mg vs. placebo, p=0.047, CI=1.01-3.80): 1.96
Patient Global Assessment decrease from baseline to week 12 versus placebo ([2]; 80 mg, p=0.02): statistically superior to that with placebo
PGA 0-3 (No/Almost Clear/Mild/Mod), % of patients ([2]; 80 mg/day, Baseline): 79.31%
PGA 0-3 (No/Almost Clear/Mild/Mod), Freq. ([2]; 80 mg/day, Baseline): 46
PGA 4 (Severe), % of patients ([2]; 80 mg/day, Baseline): 20.69%
PGA 4 (Severe), Freq. ([2]; 80 mg/day, Baseline): 12
PtGA 0-2 (No/Almost Clear/Mild), % of patients ([2]; 80 mg/day, Baseline): 11.86%
PtGA 0-2 (No/Almost Clear/Mild), Freq. ([2]; 80 mg/day, Baseline): 7
PtGA 3-5 (Mod/Severs/Worse), % of patients ([2]; 80 mg/day, Baseline): 88.14%
PtGA 3-5 (Mod/Severs/Worse), Freq. ([2]; 80 mg/day, Baseline): 52
PGA 0-3 (No/Almost Clear/Mild/Mod), % of patients ([2]; 80 mg/day, Week 8): 91.53%
PGA 0-3 (No/Almost Clear/Mild/Mod), Freq. ([2]; 80 mg/day, Week 8): 54
PGA 4 (Severe), % of patients ([2]; 80 mg/day, Week 8): 8.5% and 8.47%
PGA 4 (Severe), Freq. ([2]; 80 mg/day, Week 8): 5
PtGA 0-2 (No/Almost Clear/Mild), % of patients ([2]; 80 mg/day, Week 8): 33.90%
PtGA 0-2 (No/Almost Clear/Mild), Freq. ([2]; 80 mg/day, Week 8): 20
PtGA 3-5 (Mod/Severs/Worse), % of patients ([2]; 80 mg/day, Week 8): 66.1%
PtGA 3-5 (Mod/Severs/Worse), Freq. ([2]; 80 mg/day, Week 8): 39
PGA 0-3 (No/Almost Clear/Mild/Mod), % of patients ([2]; 80 mg/day, Week 12/EOT): 93.22%
PGA 0-3 (No/Almost Clear/Mild/Mod), Freq. ([2]; 80 mg/day, Week 12/EOT): 55
PGA 4 (Severe), % of patients ([2]; 80 mg/day, Week 12/EOT): 6.8% and 6.78%
PGA 4 (Severe), Freq. ([2]; 80 mg/day, Week 12/EOT): 4
PtGA 0-2 (No/Almost Clear/Mild), % of patients ([2]; 80 mg/day, Week 12/EOT): 38.98%
PtGA 0-2 (No/Almost Clear/Mild), Freq. ([2]; 80 mg/day, Week 12/EOT): 23
PtGA 3-5 (Mod/Severs/Worse), % of patients ([2]; 80 mg/day, Week 12/EOT): 61.0% and 61.02%
PtGA 3-5 (Mod/Severs/Worse), Freq. ([2]; 80 mg/day, Week 12/EOT): 36
correlation between VB-201 plasma levels and PASI, PGA and PtGA efficacy endpoints ([2]; PGA p=0.04, PtGA p=0.001, FIG. 10): statistically significant dose response
efficacy compared to placebo in subgroups (exploratory analyses) ([2]; baseline PASI 14.3-18.5, age ≦46 years, BSA 16%-24%, psoriasis up to 20 years, no previous immunosuppressants or biologicals, elevated baseline hs-CRP): greater trends for efficacy
time course of the efficacy endpoints ([2]; over 3 months of treatment): continued to improve overtime and had not reached a plateau at 3 months
average reduction of PASI score ([2]; patients in quartile 1 of trough level): about 18%
average reduction of PASI score ([2]; patients in quartile 4 of trough level, p=0.009): about 45%
percent change from baseline in PASI at 12 weeks versus trough level ([2]; sub-population with baseline PASI score of about 14.3 to about 18.5, FIG. 9): significantly dependent on the trough level of VB-201
PASI 50 response rates and reductions in BSA compared to placebo ([2]; week 12): Trends for favorable efficacy
severity of diarrhea cases ([3]; 80 mg/day): mild (Grade 1) and transient
diarrhea rate ([3]; 80 mg/day (placebo 6.8%)): 15.3%
safety and tolerability ([3]; PET-CT sub-study, 20 or 80 mg/day, 12 weeks): safe and well tolerated
tolerability ([3]; doses of 20 mg/day and 80 mg/day): well tolerated
overall rate of Serious Adverse Events ([3]; main study, 2 subjects): 1.6%
deaths on therapy ([3]; main study, 12 weeks): No deaths occurred on therapy
related Serious Adverse Events ([3]; main study, 12 weeks): No related Serious Adverse Events were observed
overall rate of discontinuation due to Adverse Events ([3]; on VB-201, 4 subjects): 3.2%
gastrointestinal events (humans; higher dose (e.g., 160 mg/day) in multiple sub-doses e.g. 12 hours apart, each about 80 mg or less): largely avoided
tolerability (humans; humans, single daily dose): well tolerated up to a dose of about 80 mg/day
gastrointestinal events (G-I intolerance, mainly nausea and vomiting) (humans; larger doses (e.g., 160 mg/day) as a single daily dose): associated with certain gastrointestinal events
human monocyte migration towards chemoattractants (human CD 14+ monocytes): decreases human monocyte migration
